Test results from ChEMBL document CHEMBL1154012, “Synthesis and SAR of novel tricyclic quinoxalinone inhibitors of poly(ADP-ribose)polymerase-1 (PARP-1)” (Bioorg Med Chem Lett, 2009).

Key:
[1] = biological target: T1, Poly [ADP-ribose] polymerase 1 (Homo sapiens, UniProt P09874)
Description: Inhibition of PARP1 by microplate scintillation counting

[2] = biological target: T1, Poly [ADP-ribose] polymerase 1; remark: listed apart in the source
Description: Inhibition of PARP1 in human C41 cells by DAPI staining-based FITC analysis

T1 sequence (P09874 whole entry): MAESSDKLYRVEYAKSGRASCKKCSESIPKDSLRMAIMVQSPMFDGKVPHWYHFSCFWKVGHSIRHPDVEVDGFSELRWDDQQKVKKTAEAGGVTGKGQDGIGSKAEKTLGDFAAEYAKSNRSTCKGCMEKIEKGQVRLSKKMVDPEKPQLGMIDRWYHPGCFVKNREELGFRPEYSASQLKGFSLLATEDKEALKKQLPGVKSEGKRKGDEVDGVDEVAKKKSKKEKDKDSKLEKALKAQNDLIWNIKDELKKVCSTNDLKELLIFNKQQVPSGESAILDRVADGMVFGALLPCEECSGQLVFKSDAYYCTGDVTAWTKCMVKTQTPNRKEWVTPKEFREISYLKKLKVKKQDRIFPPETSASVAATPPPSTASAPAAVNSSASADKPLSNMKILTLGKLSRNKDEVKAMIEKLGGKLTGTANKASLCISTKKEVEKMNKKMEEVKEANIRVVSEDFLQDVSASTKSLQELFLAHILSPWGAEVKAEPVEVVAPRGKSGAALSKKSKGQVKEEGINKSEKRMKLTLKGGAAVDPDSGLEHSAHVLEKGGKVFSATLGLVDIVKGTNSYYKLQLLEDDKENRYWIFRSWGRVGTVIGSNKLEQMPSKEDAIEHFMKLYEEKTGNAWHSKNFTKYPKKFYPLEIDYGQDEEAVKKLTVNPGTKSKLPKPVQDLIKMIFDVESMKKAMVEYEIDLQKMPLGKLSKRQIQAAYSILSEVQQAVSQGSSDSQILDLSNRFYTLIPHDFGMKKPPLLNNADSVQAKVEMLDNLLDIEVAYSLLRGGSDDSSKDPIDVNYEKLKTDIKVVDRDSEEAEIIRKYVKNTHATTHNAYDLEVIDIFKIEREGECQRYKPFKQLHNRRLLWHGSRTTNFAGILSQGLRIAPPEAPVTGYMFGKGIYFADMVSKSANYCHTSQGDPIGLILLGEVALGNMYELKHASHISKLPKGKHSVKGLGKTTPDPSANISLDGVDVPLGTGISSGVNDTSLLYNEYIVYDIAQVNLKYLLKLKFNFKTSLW

| Ki [1] | EC50 [2] | SMILES |
| --- | --- | --- |
| 190 nM | 646 nM | CN(C)Cc1ccc2c(c1)NC(=O)C1CCCN21 (stereo not drawn) |
| 31 nM | 25 nM | O=c1[nH]c2ccc(CNC3CC3)cc2n2cccc12 |
| 161 nM | 164 nM | O=c1[nH]c2cc(CNCc3ccccc3)ccc2n2cccc12 |
| – | 6 nM | O=c1[nH]c2cc(CN3CCCC3)ccc2n2cccc12 |

| SMILES | Ki [1] | EC50 [2] |
| --- | --- | --- |
| O=c1[nH]c2ccc(CN3CCCCC3)cc2n2cccc12 | – | 31 nM |
